Test system: HCV genotype 1b (Con1) replicon in HUH-7 cells
Test: HCV replicon luciferase reporter assay, genotype 1b
Assay type: cell-based
Conditions: Hepatitis C virus, 72 h, genotype 1b replicon, 3 days incubation, read-out: LE_1b (EC50)
Excerpt: An HCV replicon whole cell system was established as described by Lohmann V, Korner F, Koch J, Herian U, Theilmann L, Bartenschlager R., Science 285(5424):110-3 (1999) and modified to introduce a luciferase reporter, as first described by Krieger et al (Krieger N, Lohmann V, and Bartenschlager R, J. Virol. 75(10):4614-4624 (2001)). CDNA encoding a humanized form of the Renilla luciferase gene and a linker sequence fused directly to the 3′-end of the luciferase gene were introduced into the replicon construct using an Asc1 restriction site located in core, directly upstream of the neomycin marker gene. The adaptive mutation at position 1179 (serine to isoleucine) was also introduced (Blight K J, Kolykhalov, A A, Rice, C M, Science 290(5498):1972-1974). A stable cell line constitutively expressing this HCV replicon construct was generated by first linearizing plasmid DNAs with ScaI. RNA transcripts were synthesized in vitro using the T7 MegaScript transcription kit (Ambion, Austin, Tex.) according to manufacturer's directions. In vitro transcripts of the cDNA were transfected into the human hepatoma cell line, HUH-7. […] Resulting cell lines were characterized for positive and negative strand RNA production and protein production over time. […]
HCV replicon luciferase assays were developed to monitor the inhibitory effects of compounds described in the disclosure on HCV genotypes 1a and 1b viral replication. HUH-7 cells, constitutively expressing the HCV replicon, were grown in Dulbecco's Modified Eagle Media (DMEM) (Gibco-BRL) containing 10% Fetal calf serum (FCS) (Sigma) and 1 mg/mL G418 (Gibco-BRL). Compounds were serially diluted 3 folds in DMSO for a twenty-point titration and subsequently transferred to sterile 384-well tissue-culture treated plates (Corning cat #3571). The plates were then seeded with 50 μL of cells at a density of 3.0×10^3 cells/well in DMEM containing 4% FCS (final DMSO concentration at 0.5%). After 3 days incubation at 37° C., cells were analyzed for Renilla Luciferase activity using the EnduRen as substrate (Promega cat #E6485). The EnduRen substrate was diluted in DMEM and then added to the plates to a final concentration of 7.5 μM. The plates were incubated for 2 hrs at 37° C. and then read immediately for 30 seconds with Viewlux Imager (PerkinElmer) using a luminescence program. To assess cytotoxicity of compounds, CC50 values were generated by multiplexing the EnduRen-containing plates with Cell Titer-Blue (Promega, cat # G8082). Cell-Titer Blue (3 μL) was added to each well and incubated for 8 hrs at 37° C. The fluorescence signal from each well was read, with an excitation wavelength at 525/10 nm and an emission wavelength of 598/10 nm, using the Viewlux Imager.
The EC50 values for compounds were calculated by using a four-parameter logistic equation: y=A+((B−A)/(1+((C/x)^D))), where A and B denotes minimal and maximal % inhibition, respectively, C is the EC50, D is the hill slope and x represents compound concentration.

SMILES | EC50 [nM]
COC[C@@H]1C[C@H](C)CC/C=C\[C@@H]2C[C@@]2(C(=O)NS(=O)(=O)C2(C)CC2)NC(=O)[C@@H]2C[C@@H](Oc3nc4cc(OC)c(F)cc4nc3C(F)(F)F)CN2C(=O)[C@H]1NC(=O)OC(C)(C)C(F)(F)F [Compound 1048, 1,1,1-trifluoro-2-methylpropan-2-yl ((2R,6S,7R,9R,13aS,14aR,16aS,Z)-2-((6-fluoro-7-methoxy-3-(trifluoromethyl)quinoxalin-2-yl)oxy)-7-(methoxymethyl)-9-methyl-14a-(((1-methylcyclopropyl)sulfonyl)carbamoyl)-5,16-dioxo-1,2,3,5,6,7,8,9,10,11,13a,14,14a,15,16,16a-hexadecahydrocyclopropa[e]pyrrolo[1,2-a][1,4]diazacyclopentadecin-6-yl)carbamate] | 0.27

Same assay, conditions: Hepatitis C virus, 72 h, genotype 1b replicon, 3 days incubation, read-out: LE_1b (EC50, range)

SMILES | EC50 [nM]
COC[C@@H]1C[C@@H](C)CC/C=C\[C@@H]2C[C@@]2(C(=O)NS(=O)(=O)C2(C)CC2)NC(=O)[C@@H]2C[C@@H](Oc3nc4cc(OC)c(F)cc4nc3C(F)(F)F)CN2C(=O)[C@H]1NC(=O)OC(C)(C)C [Compound 1045, tert-butyl ((2R,6S,7R,9S,13aS,14aR,16aS,Z)-2-((6-fluoro-7-methoxy-3-(trifluoromethyl)quinoxalin-2-yl)oxy)-7-(methoxymethyl)-9-methyl-14a-(((1-methylcyclopropyl)sulfonyl)carbamoyl)-5,16-dioxo-1,2,3,5,6,7,8,9,10,11,13a,14,14a,15,16,16a-hexadecahydrocyclopropa[e]pyrrolo[1,2-a][1,4]diazacyclopentadecin-6-yl)carbamate] | 1.01 to 5
COC[C@@H]1C[C@@H](C)CC/C=C\[C@@H]2C[C@@]2(C(=O)NS(=O)(=O)C2(C)CC2)NC(=O)[C@@H]2C[C@@H](Oc3nc4cc(OC)c(F)cc4nc3C(F)(F)F)CN2C(=O)[C@H]1NC(=O)OC(C)(C)C(F)(F)F [Compound 1046, 1,1,1-trifluoro-2-methylpropan-2-yl ((2R,6S,7R,9S,13aS,14aR,16aS,Z)-2-((6-fluoro-7-methoxy-3-(trifluoromethyl)quinoxalin-2-yl)oxy)-7-(methoxymethyl)-9-methyl-14a-(((1-methylcyclopropyl)sulfonyl)carbamoyl)-5,16-dioxo-1,2,3,5,6,7,8,9,10,11,13a,14,14a,15,16,16a-hexadecahydrocyclopropa[e]pyrrolo[1,2-a][1,4]diazacyclopentadecin-6-yl)carbamate] | 1.01 to 5
COC[C@@H]1C[C@H](C)CC/C=C\[C@@H]2C[C@@]2(C(=O)NS(=O)(=O)C2(C)CC2)NC(=O)[C@@H]2C[C@@H](Oc3nc4cc(OC)c(F)cc4nc3C(F)(F)F)CN2C(=O)[C@H]1NC(=O)OC(C)(C)C [Compound 1047, tert-butyl ((2R,6S,7R,9R,13aS,14aR,16aS,Z)-2-((6-fluoro-7-methoxy-3-(trifluoromethyl)quinoxalin-2-yl)oxy)-7-(methoxymethyl)-9-methyl-14a-(((1-methylcyclopropyl)sulfonyl)carbamoyl)-5,16-dioxo-1,2,3,5,6,7,8,9,10,11,13a,14,14a,15,16,16a-hexadecahydrocyclopropa[e]pyrrolo[1,2-a][1,4]diazacyclopentadecin-6-yl)carbamate] | 0.51 to 1
COC[C@@H]1C[C@H](C)CC/C=C\[C@@H]2C[C@@]2(C(=O)NS(=O)(=O)C2(C)CC2)NC(=O)[C@@H]2C[C@@H](Oc3nc4cc(OC)c(F)cc4nc3C(F)(F)F)CN2C(=O)[C@H]1NC(=O)OC(C)(C)C(F)(F)F [Compound 1048, 1,1,1-trifluoro-2-methylpropan-2-yl ((2R,6S,7R,9R,13aS,14aR,16aS,Z)-2-((6-fluoro-7-methoxy-3-(trifluoromethyl)quinoxalin-2-yl)oxy)-7-(methoxymethyl)-9-methyl-14a-(((1-methylcyclopropyl)sulfonyl)carbamoyl)-5,16-dioxo-1,2,3,5,6,7,8,9,10,11,13a,14,14a,15,16,16a-hexadecahydrocyclopropa[e]pyrrolo[1,2-a][1,4]diazacyclopentadecin-6-yl)carbamate] | 0.1 to 0.5
CCOc1ccc2nc(C(F)(F)F)c(O[C@@H]3C[C@H]4C(=O)N[C@]5(C(=O)NS(=O)(=O)C6(C)CC6)C[C@H]5/C=C\CC[C@H](C)C[C@@H](COC)[C@H](NC(=O)OC(C)(C)C)C(=O)N4C3)nc2c1 [Compound 1049, tert-butyl ((2R,6S,7R,9S,13aS,14aR,16aS,Z)-2-((7-ethoxy-3-(trifluoromethyl)quinoxalin-2-yl)oxy)-7-(methoxymethyl)-9-methyl-14a-(((1-methylcyclopropyl)sulfonyl)carbamoyl)-5,16-dioxo-1,2,3,5,6,7,8,9,10,11,13a,14,14a,15,16,16a-hexadecahydrocyclopropa[e]pyrrolo[1,2-a][1,4]diazacyclopentadecin-6-yl)carbamate] | 1.01 to 5
CCOc1ccc2nc(C(F)(F)F)c(O[C@@H]3C[C@H]4C(=O)N[C@]5(C(=O)NS(=O)(=O)C6(C)CC6)C[C@H]5/C=C\CC[C@@H](C)C[C@@H](COC)[C@H](NC(=O)OC(C)(C)C)C(=O)N4C3)nc2c1 [Compound 1050, tert-butyl ((2R,6S,7R,9R,13aS,14aR,16aS,Z)-2-((7-ethoxy-3-(trifluoromethyl)quinoxalin-2-yl)oxy)-7-(methoxymethyl)-9-methyl-14a-(((1-methylcyclopropyl)sulfonyl)carbamoyl)-5,16-dioxo-1,2,3,5,6,7,8,9,10,11,13a,14,14a,15,16,16a-hexadecahydrocyclopropa[e]pyrrolo[1,2-a][1,4]diazacyclopentadecin-6-yl)carbamate] | 0.1 to 0.5
CCOc1ccc2nc(C(F)(F)F)c(O[C@@H]3C[C@H]4C(=O)N[C@]5(C(=O)NS(=O)(=O)C6(C)CC6)C[C@H]5/C=C\CC[C@H](C)C[C@@H](COC)[C@H](NC(=O)OC(C)(C)C(C)(F)F)C(=O)N4C3)nc2c1 [Compound 1051, 3,3-difluoro-2-methylbutan-2-yl ((2R,6S,7R,9S,13aS,14aR,16aS,Z)-2-((7-ethoxy-3-(trifluoromethyl)quinoxalin-2-yl)oxy)-7-(methoxymethyl)-9-methyl-14a-(((1-methylcyclopropyl)sulfonyl)carbamoyl)-5,16-dioxo-1,2,3,5,6,7,8,9,10,11,13a,14,14a,15,16,16a-hexadecahydrocyclopropa[e]pyrrolo[1,2-a][1,4]diazacyclopentadecin-6-yl)carbamate] | 1.01 to 5
CCOc1ccc2nc(C(F)(F)F)c(O[C@@H]3C[C@H]4C(=O)N[C@]5(C(=O)NS(=O)(=O)C6(C)CC6)C[C@H]5/C=C\CC[C@@H](C)C[C@@H](COC)[C@H](NC(=O)OC(C)(C)C(C)(F)F)C(=O)N4C3)nc2c1 [Compound 1052, 3,3-difluoro-2-methylbutan-2-yl ((2R,6S,7R,9R,13aS,14aR,16aS,Z)-2-((7-ethoxy-3-(trifluoromethyl)quinoxalin-2-yl)oxy)-7-(methoxymethyl)-9-methyl-14a-(((1-methylcyclopropyl)sulfonyl)carbamoyl)-5,16-dioxo-1,2,3,5,6,7,8,9,10,11,13a,14,14a,15,16,16a-hexadecahydrocyclopropa[e]pyrrolo[1,2-a][1,4]diazacyclopentadecin-6-yl)carbamate] | 0.1 to 0.5
CCOc1ccc2nc(C(F)(F)F)c(O[C@@H]3C[C@H]4C(=O)N[C@]5(C(=O)NS(=O)(=O)C6(C)CC6)C[C@H]5/C=C\CC[C@H](C)C[C@@H](COC)[C@H](NC(=O)OC(C)(C)C(F)(F)F)C(=O)N4C3)nc2c1 [Compound 1053, 1,1,1-trifluoro-2-methylpropan-2-yl ((2R,6S,7R,9S,13aS,14aR,16aS,Z)-2-((7-ethoxy-3-(trifluoromethyl)quinoxalin-2-yl)oxy)-7-(methoxymethyl)-9-methyl-14a-(((1-methylcyclopropyl)sulfonyl)carbamoyl)-5,16-dioxo-1,2,3,5,6,7,8,9,10,11,13a,14,14a,15,16,16a-hexadecahydrocyclopropa[e]pyrrolo[1,2-a][1,4]diazacyclopentadecin-6-yl)carbamate] | 1.01 to 5
CCOc1ccc2nc(C(F)(F)F)c(O[C@@H]3C[C@H]4C(=O)N[C@]5(C(=O)NS(=O)(=O)C6(C)CC6)C[C@H]5/C=C\CC[C@@H](C)C[C@@H](COC)[C@H](NC(=O)OC(C)(C)C(F)(F)F)C(=O)N4C3)nc2c1 [Compound 1054, 1,1,1-trifluoro-2-methylpropan-2-yl ((2R,6S,7R,9R,13aS,14aR,16aS,Z)-2-((7-ethoxy-3-(trifluoromethyl)quinoxalin-2-yl)oxy)-7-(methoxymethyl)-9-methyl-14a-(((1-methylcyclopropyl)sulfonyl)carbamoyl)-5,16-dioxo-1,2,3,5,6,7,8,9,10,11,13a,14,14a,15,16,16a-hexadecahydrocyclopropa[e]pyrrolo[1,2-a][1,4]diazacyclopentadecin-6-yl)carbamate] | 0.1 to 0.5
